{"source": "patent US9023398B2", "about": "“Method for improving the aqueous solubility of poorly-soluble substances” (Kabushiki Kaisha Sangi, priority 2009, dated 2015)", "key": {"[1]": {"experimental": "The rotation number of the stirrer was 120 rpm, and all of the tests were conducted in a thermostat at 37±0.5° C. Two types of test solutions, namely, distilled water and 2nd fluid for disintegration test (pH 6.8) of the Japanese Pharmacopoeia were used. As such 2nd fluid for disintegration test of the Japanese Pharmacopoeia, a solution prepared by diluting the 10-fold concentration solution of Kanto Kagaku Co., Ltd. with distilled water was used.\nA comparative test was carried out in the same manner as that described above with the exception that a poorly-soluble substance or the like was used in an amount equal to that of a substance with improved aqueous solubility, instead of the substance with improved aqueous solubility.\n1 mL of the solution was sampled in an Eppendorf centrifuge tube, 1, 3, 10, 30, 60, 180 and 360 minutes after initiation of the test. The thus sampled solution was centrifuged at 12,000 rpm for 5 minutes. […] In the case of the comparative test, the poorly-soluble substance or the like, which had not been dissolved in the solution, was removed. An aliquot of this supernatant was immediately frozen. The frozen sample was freeze-dried, and it was then used as a sample in the measurement of the amount of the substance with improved aqueous solubility, which had been dissolved in the test solution. The dissolved poorly-soluble substance was measured mainly using a dual wavelength absorption photometer.\nMoreover, a comparative test was carried out using silica fume instead of the calcium compound microparticles. Specifically, a coating treatment was carried out according to the same method as that described in the above section “6-1."}, "[2]": {"assay": "Dissolution test of poorly-soluble substances using distilled water", "type": "physicochemical"}, "[3]": {"assay": "Dissolution test of poorly-soluble substances using 2nd fluid for disintegration test (pH 6.8) of the Japanese Pharmacopoeia", "type": "physicochemical", "procedure": "From initiation of the test, the mixed solution was stirred with a stirrer having a length of 15 mm. The rotation number of the stirrer was 120 rpm, and all of the tests were conducted in a thermostat at 37±0.5° C. Two types of test solutions, namely, distilled water and 2nd fluid for disintegration test (pH 6.8) of the Japanese Pharmacopoeia were used. As such 2nd fluid for disintegration test of the Japanese Pharmacopoeia, a solution prepared by diluting the 10-fold concentration solution of Kanto Kagaku Co., Ltd. with distilled water was used."}}, "note": "Counter-ions that a name gives are not always drawn.", "data": [{"smiles": "O=C(Nc1ccc(Cl)cc1)Nc1ccc(Cl)c(Cl)c1", "note": "[10-1, Trichlorocarbanilide]", "values": [{"measurement": "solubility-improving effect", "setting": "[1]", "result": "a solubility-improving effect was obtained"}, {"measurement": "Dissolved amount", "setting": "[2]; Dissolution test using water, elution time 1 min", "result": 0.0, "unit": "µg/mL"}, {"measurement": "Dissolved amount", "setting": "[2]; Dissolution test using water, elution time 3 min", "result": 0.1, "unit": "µg/mL"}, {"measurement": "Dissolved amount", "setting": "[2]; Dissolution test using water, elution time 10 min", "result": 0.4, "unit": "µg/mL"}, {"measurement": "Dissolved amount", "setting": "[2]; Dissolution test using water, elution time 30 min", "result": 0.4, "unit": "µg/mL"}, {"measurement": "Dissolved amount", "setting": "[2]; Dissolution test using water, elution time 60 min", "result": 0.4, "unit": "µg/mL"}, {"measurement": "Dissolved amount", "setting": "[2]; Dissolution test using water, elution time 180 min", "result": 0.5, "unit": "µg/mL"}, {"measurement": "Dissolved amount", "setting": "[2]; Dissolution test using water, elution time 360 min", "result": 0.6, "unit": "µg/mL"}, {"measurement": "Dissolved amount", "setting": "[2]; Distilled water, trichlorocarbanilide, elution time not printed in Table 13", "result": 0.6, "unit": "µg/mL"}, {"measurement": "Dissolved amount", "setting": "[3]; 2nd fluid for disintegration test, elution time 1 min", "result": 0.0, "unit": "µg/mL"}, {"measurement": "Dissolved amount", "setting": "[3]; 2nd fluid for disintegration test, elution time 3 min", "result": 0.3, "unit": "µg/mL"}, {"measurement": "Dissolved amount", "setting": "[3]; 2nd fluid for disintegration test, elution time 10 min", "result": 0.6, "unit": "µg/mL"}, {"measurement": "Dissolved amount", "setting": "[3]; 2nd fluid for disintegration test, elution time 30 min", "result": 0.8, "unit": "µg/mL"}, {"measurement": "Dissolved amount", "setting": "[3]; 2nd fluid for disintegration test, elution time 60 min", "result": 1.1, "unit": "µg/mL"}, {"measurement": "Dissolved amount", "setting": "[3]; 2nd fluid for disintegration test, elution time 180 min", "result": 1.3, "unit": "µg/mL"}, {"measurement": "Dissolved amount", "setting": "[3]; 2nd fluid for disintegration test, elution time 360 min", "result": 1.5, "unit": "µg/mL"}, {"measurement": "Dissolved amount", "setting": "[3]; Second disintegration test medium, trichlorocarbanilide, elution time not printed in Table 13", "result": 1.5, "unit": "µg/mL"}]}, {"smiles": "CC1CNc2c(cccc2S(=O)(=O)N[C@@H](CCCNC(=N)N)C(=O)N2CC[C@@H](C)C[C@@H]2C(=O)O)C1", "note": "(stereo partly shown) [argatroban]", "values": [{"measurement": "solubility-improving effect", "setting": "[1]", "result": "a solubility-improving effect was obtained"}]}, {"smiles": "C[C@H]1[C@H](NC(=O)/C(=N\\OC(C)(C)C(=O)O)c2csc(N)n2)C(=O)N1S(=O)(=O)O", "note": "[aztreonam]", "values": [{"measurement": "solubility-improving effect", "setting": "[1]", "result": "a solubility-improving effect was obtained"}]}, {"smiles": "CO/N=C(\\C(=O)N[C@@H]1C(=O)N2C(C(=O)O)=C(CSc3nnnn3C)CS[C@H]12)c1csc(N)n1", "note": "[cefmenoxime hydrochloride]", "values": [{"measurement": "solubility-improving effect", "setting": "[1]", "result": "a solubility-improving effect was obtained"}]}, {"smiles": "CC(C)(O/N=C(\\C(=O)N[C@@H]1C(=O)N2C(C(=O)[O-])=C(C[n+]3ccccc3)CS[C@H]12)c1csc(N)n1)C(=O)O", "note": "[ceftazidime]", "values": [{"measurement": "solubility-improving effect", "setting": "[1]", "result": "a solubility-improving effect was obtained"}]}, {"smiles": "CN1CCC[C@@H]1CCO[C@](C)(c1ccccc1)c1ccc(Cl)cc1", "note": "[clemastine fumarate]", "values": [{"measurement": "solubility-improving effect", "setting": "[1]", "result": "a solubility-improving effect was obtained"}]}, {"smiles": "CN(C)/N=N/c1[nH]cnc1C(N)=O", "note": "[dacarbazine]", "values": [{"measurement": "solubility-improving effect", "setting": "[1]", "result": "a solubility-improving effect was obtained"}]}, {"smiles": "CC(=O)O[C@@]12CO[C@@H]1C[C@H](O)[C@@]1(C)C(=O)[C@H](O)C3=C(C)[C@@H](OC(=O)[C@H](O)[C@@H](NC(=O)OC(C)(C)C)c4ccccc4)C[C@@](O)([C@@H](OC(=O)c4ccccc4)[C@H]21)C3(C)C", "note": "[docetaxel hydrate]", "values": [{"measurement": "solubility-improving effect", "setting": "[1]", "result": "a solubility-improving effect was obtained"}]}, {"smiles": "C[C@]12CC[C@@H]3c4ccc(OC(=O)c5ccccc5)cc4CC[C@H]3[C@@H]1CC[C@@H]2O", "note": "[estradiol benzoate]", "values": [{"measurement": "solubility-improving effect", "setting": "[1]", "result": "a solubility-improving effect was obtained"}]}, {"smiles": "CCCCC(=O)O[C@H]1CC[C@H]2[C@@H]3CCc4cc(O)ccc4[C@H]3CC[C@]12C", "note": "[estradiol valerate]", "values": [{"measurement": "solubility-improving effect", "setting": "[1]", "result": "a solubility-improving effect was obtained"}]}, {"smiles": "C[C@]12CC[C@@H]3c4ccc(O)cc4CC[C@H]3[C@@H]1C[C@@H](O)[C@@H]2O", "note": "[estriol]", "values": [{"measurement": "solubility-improving effect", "setting": "[1]", "result": "a solubility-improving effect was obtained"}]}, {"smiles": "CC/C=C\\C/C=C\\C/C=C\\C/C=C\\C/C=C\\CCCC(=O)OCC", "note": "[ethyl icosapentate]", "values": [{"measurement": "solubility-improving effect", "setting": "[1]", "result": "a solubility-improving effect was obtained"}]}, {"smiles": "CCCCCC(=O)O[C@]1(C(C)=O)CC[C@H]2[C@@H]3CCC4=CC(=O)CC[C@]4(C)[C@H]3CC[C@@]21C", "note": "[hydroxyprogesterone caproate]", "values": [{"measurement": "solubility-improving effect", "setting": "[1]", "result": "a solubility-improving effect was obtained"}]}, {"smiles": "CC(C)Cc1ccc(C(C)C(=O)O)cc1", "note": "(stereo not shown) [ibuprofen]", "values": [{"measurement": "solubility-improving effect", "setting": "[1]", "result": "a solubility-improving effect was obtained"}]}, {"smiles": "C[C@@H]1[C@H](O)[C@@H](C)/C=C/C=C/CC/C=C/C=C/C=C/C=C/C(O[C@H]2O[C@H](C)[C@@H](O)[C@H](N)[C@@H]2O)CC2O[C@](O)(CC(O)C(O)CCC(O)CC(O)CC(O)CC(=O)O[C@H]1C)CC(O)C2C(=O)O", "note": "(stereo partly shown) [nystatin]", "values": [{"measurement": "solubility-improving effect", "setting": "[1]", "result": "a solubility-improving effect was obtained"}]}, {"smiles": "CC(=O)O[C@H]1C(=O)[C@@]2(C)[C@H]([C@H](OC(=O)c3ccccc3)[C@]3(O)C[C@H](OC(=O)[C@H](O)[C@@H](NC(=O)c4ccccc4)c4ccccc4)C(C)=C1C3(C)C)[C@]1(OC(C)=O)CO[C@@H]1C[C@@H]2O", "note": "[paclitaxel]", "values": [{"measurement": "solubility-improving effect", "setting": "[1]", "result": "a solubility-improving effect was obtained"}]}, {"smiles": "O=C(O)c1cc(/N=N/c2ccc(S(=O)(=O)Nc3ccccn3)cc2)ccc1O", "note": "[salazosulfapyridine]", "values": [{"measurement": "solubility-improving effect", "setting": "[1]", "result": "a solubility-improving effect was obtained"}]}, {"smiles": "C=CC[C@@H]1/C=C(\\C)C[C@H](C)C[C@H](OC)[C@H]2O[C@@](O)(C(=O)C(=O)N3CCCC[C@H]3C(=O)O[C@H](/C(C)=C/[C@@H]3CC[C@@H](O)[C@H](OC)C3)[C@H](C)[C@@H](O)CC1=O)[C@H](C)C[C@@H]2OC", "note": "[tacrolimus hydrate]", "values": [{"measurement": "solubility-improving effect", "setting": "[1]", "result": "a solubility-improving effect was obtained"}]}]}
